Tests used:
[1] = tested on: TNBC9 cells; experiment: induction of caspase-3/7 activation / target killing in TNBC9 cells; type: cell-based, human
From the text: (§1) The 10 most abundant aptamer sequences are highlighted. Panel B is a representative screening of the 10 most abundant aptamers from Panel A for significant caspase-3/7 activation in comparison to vehicle (V) and random oligonucleotide (R) in TNBC9 cells. Aptamer IDs labeled 1-10 (E1, E2, . . . . E10). […] STA, staurosporine; PAC, paclitaxel; Random, random oligonucleotide.
Functional enrichment of aptamers that mediate apoptosis of patient-derived xenograft (PDX)-derived triple negative breast cancer (TNBC) cells, termed TNBC9 (Example 8) was followed by selection of lead molecules. Based on sequencing analysis (FIG. 10, Panel A), the 10 most abundant sequences in the functionally enriched aptamer population were selected, synthesized, and folded.
The effectiveness of the selected candidate aptamers in target killing was measured on TNBC9 cells. Specifically, candidate aptamers were synthesized, folded, directly tested for induction of caspase-3/7 activation in TNBC9 cells.

[2] = tested on: MCF10A cells; experiment: selectivity of cell death induction, negative target cells; type: cell-based, human; conditions: selectivity at the target cell level
[3] = tested on: MDA-MB-231 cells; experiment: effect of E8 on MDA-MB-231 cells; type: cell-based
[4] = tested on: TNBC cells; experiment: effect of E8 on TNBC cells in mouse serum; type: cell-based
From the text: as §1
(See, e.g., Yamashita, M. et al. A novel method for evaluating antibody-dependent cell-mediated cytotoxicity by flow cytometry using cryopreserved human peripheral blood mononuclear cells. Sci. Rep. 6, 19772 (2016); Romano, E. et al. Ipilimumab-dependent cell-mediated cytotoxicity of regulatory T cells ex vivo by nonclassical monocytes in melanoma patients. Proc. Natl. Acad. Sci. U.S.A 112, 6140-6145 (2015); Kumar, R. et al. PD-1 blockade restores impaired function of ex vivo expanded CD8 T cells and enhances apoptosis in mismatch repair deficient EpCAMPD-L1 cancer cells. Onco. Targets. Ther. 10, 3453-3465 (2017), each of which is hereby incorporated by reference.).

[5] = tested on: red blood cells; experiment: incubation with red blood cells: agglutination and hemolysis; type: cell-based, human; conditions: varying concentrations of E8
Method: (§2) Varying concentrations of E8 aptamer candidate were incubated with red blood cells and, separately, with PBMCs from healthy donors to ensure E8 administration is applicable in a clinical setting. No effects of blood agglutination or red blood cell hemolysis were measured.

[6] = tested on: PBMCs from healthy donors; experiment: cytokine antibody array assay on PBMCs; type: cell-based, human; conditions: varying concentrations of E8
Method: as §2

[7] = tested on: MDA-MB-231-derived tumors; experiment: efficacy of E8 on tumor volume in tumor-bearing mice; type: in vivo, NOD/SCID mice
From the text: White arrows point to tumor locations. […] Inset region is shown magnified on the right, white arrowhead points to tumor site. […] Asterisks denote a statistically difference with p<0.05 (n=8 mice/group). […] Panel F-G show histochemical analysis of caspase-3 activity in tumor-derived tissue sections (Panel F, vehicle-treated; Panel G, E8-treated). Panel H-I show TUNEL analysis of tumor-derived tissue sections (H, vehicle-treated; I, E8-treated).
To evaluate the efficacy of E8 on tumor volume, the PEGylated aptamer was injected once every 2 days during the course of an 11-day period, at a dose of 100 mg/kg (equivalent in molar terms to standard chemotherapy).

[8] = tested on: tumor cells in EVOC samples from TNBC patients; experiment: human ex-vivo organ cultures (EVOC), graded pathological assessment; type: cell-based; conditions: 0-4 scale, 2 blinded pathologists; 20-50 μM, two doses, 5 days; EVOC from 2 patients
Method: Graded pathological assessment was made on a scale of 0-4 by two blinded pathologists. White stars denote samples in which an effect reached a grade of at least 3. Rnd, random.
The efficacy of aptamer E8 (described in Example 10) was evaluated in human ex-vivo organ cultures (EVOC). EVOCs were freshly derived from two representative TNBC patients and were prepared by Curesponse. 250 μm wide tissue slices were plated onto a 24 well plate in culture medium at high oxygen conditions. Cancer cells of the primary tumor were kept viable for up to 14 days.
The E8 aptamer and other chemotherapies (palbociclib, everolimus, fulvestrant) were administered at concentrations of 20-50 μM to the EVOCs. Following day 1, sample medium was replaced and a second dose of the same concentration of therapies were administered. After 5 days, samples were fixed with 4% w/v paraformaldehyde and histological sections were prepared and stained with hematoxylin-eosin. Effects were graded by 2 blinded pathologists on a 0-4 scale.

[9] = PEGylated aptamer, 100 mg/kg once every 2 days
[10] = following injection of E8 compared to the PBS control

## CGGACTCACGCAAGAGCGTTTGGCAGTGTAAAACTGTTTAACGTATCTGCTCGC (chemistry not given here) [Aptamer E8]
[1]; compared to vehicle alone or random oligonucleotides
  induction of apoptosis (caspase-3/7 activation): most effective of the selected aptamers at inducing apoptosis
[1]; in-vitro and ex-vivo, independent biological replicate experiments
  level of direct target killing: 20-40%
[1]; selectivity at the target cell level
  cell killing, target cells: killing TNBC9
[2]
  cell killing, negative target cells: but not MCF10A cells
[3]
  effect on MDA-MB-231 cells: remarkable effect
[4]
  function in mouse serum: retained function in mouse serum
[5]
  blood agglutination: No effects
  red blood cell hemolysis: No effects
[6]
  cytokine release: Only minor release of certain cytokines
[7]; [9]
  TUNEL analysis (apoptotic DNA fragmentation) of tumor-derived tissue sections: increase in cell death
  histochemical analysis of caspase-3 activity in tumor-derived tissue sections: significant staining
[7]; PEGylated aptamer, 100 mg/kg once every 2 days over 11 days
  tumor volume change compared to vehicle-treated animals: decreased significantly
[7]; PEGylated aptamer, 100 mg/kg once every 2 days over 11 days, vehicle 301±51
  final tumor volume on day 11: 168±39 mm^3
[7]; PEGylated aptamer, 100 mg/kg once every 2 days, tumors excised day 11
  macroscopic appearance of extracted tumors: macroscopic signs of tissue death
[7]; [10]
  body weight: No significant changes
  physical appearance: No significant changes
[8]
  pathological grade of effect on tumor cells: 3-4
